{"source": "patent US20260042731A1", "about": "“(2,4-DICHLOROPHENOXY)ACETIC ACID ANALOGS” (CORTEVA AGRISCIENCE LLC, priority 2022, published 2026)", "key": {"[1]": {"system": "weeds ABUTH, AMATA, AMBEL, CHEAL, ERICA", "assay": "Postemergence herbicide evaluation, overall average % weed control (ABUTH, AMATA, AMBEL, CHEAL, ERICA)", "format": "in vivo", "details": "post-emergence, read-out: Overall Ave % Weed Control; for pest or weed control at 280 g/ha: 280 g ae/ha; for pest or weed control at 560 g/ha: 560 g ae/ha"}, "[2]": {"system": "glyphosate resistant Conyza canadensis (L.) (ERICA), horseweed", "assay": "Postemergence herbicide evaluation, growth of Conyza canadensis (ERICA)", "format": "in vivo", "details": "Erigeron canadensis, post-emergence, read-out: Ave. ERICA, percent reduction in plant size relative to the untreated control; for pest or weed control at 280 g/ha: 280 g ae/ha; for pest or weed control at 560 g/ha: 560 g ae/ha"}, "[3]": {"system": "Chenopodium album (CHEAL), common lambsquarters", "assay": "Postemergence herbicide evaluation, growth of Chenopodium album (CHEAL)", "format": "in vivo", "details": "Chenopodium album, post-emergence, read-out: Ave. CHEAL, percent reduction in plant size relative to the untreated control; for pest or weed control at 280 g/ha: 280 g ae/ha; for pest or weed control at 560 g/ha: 560 g ae/ha"}, "[4]": {"system": "Ambrosia artemisiifolia (AMBEL), common ragweed", "assay": "Postemergence herbicide evaluation, growth of Ambrosia artemisiifolia (AMBEL)", "format": "in vivo", "details": "Ambrosia artemisiifolia, post-emergence, read-out: AVE. AMBEL, percent reduction in plant size relative to the untreated control; for pest or weed control at 280 g/ha: 280 g ae/ha; for pest or weed control at 560 g/ha: 560 g ae/ha"}, "[5]": {"assay": "Volatility of compounds measured by thermogravimetric analysis (TGA)", "format": "physicochemical"}, "[6]": {"system": "Amaranthus rudis (AMATA), tall water hemp", "assay": "Postemergence herbicide evaluation, growth of Amaranthus rudis (AMATA)", "format": "in vivo", "details": "for pest or weed control at 280 g/ha / pest or weed control at 560 g/ha: Amaranthus tuberculatus, post-emergence, read-out: Ave. AMATA, percent reduction in plant size relative to the untreated control"}, "[7]": {"system": "Abutilon theophrasti (ABUTH), velvetleaf", "assay": "Postemergence herbicide evaluation, growth of Abutilon theophrasti (ABUTH)", "format": "in vivo", "details": "for pest or weed control at 560 g/ha: 560 g ae/ha"}}, "note": "Where two headings read alike, the source gives them in different places.", "data": [{"smiles": "O=C(COc1ccc(Cl)cc1Cl)Oc1cncnc1", "note": "[Compound E14, Pyrimidin-5-yl 2-(2,4-dichlorophenoxy)acetate]", "values": [{"measurement": "pest or weed control at 280 g/ha", "setting": "[1]; 168 h, 7 DAA", "value": 78.3, "unit": "%"}, {"measurement": "pest or weed control at 560 g/ha", "setting": "[1]; 168 h, 7 DAA", "value": 81.2, "unit": "%"}, {"measurement": "pest or weed control at 280 g/ha", "setting": "[1]; 336 h, 14 DAA", "value": 86, "unit": "%"}, {"measurement": "pest or weed control at 560 g/ha", "setting": "[1]; 336 h, 14 DAA", "value": 92.7, "unit": "%"}, {"measurement": "pest or weed control at 280 g/ha", "setting": "[1]; 504 h, 21 DAA", "value": 96.2, "unit": "%"}, {"measurement": "pest or weed control at 560 g/ha", "setting": "[1]; 504 h, 21 DAA", "value": 99.2, "unit": "%"}, {"measurement": "pest or weed control at 280 g/ha", "setting": "[2]; 168 h, 7 DAA", "value": 75, "unit": "%"}, {"measurement": "pest or weed control at 560 g/ha", "setting": "[2]; 168 h, 7 DAA", "value": 85, "unit": "%"}, {"measurement": "pest or weed control at 280 g/ha", "setting": "[2]; 336 h, 14 DAA", "value": 92.5, "unit": "%"}, {"measurement": "pest or weed control at 560 g/ha", "setting": "[2]; 336 h, 14 DAA", "value": 98, "unit": "%"}, {"measurement": "pest or weed control at 280 g/ha", "setting": "[2]; 504 h, 21 DAA", "value": 96, "unit": "%"}, {"measurement": "pest or weed control at 560 g/ha", "setting": "[2]; 504 h, 21 DAA", "value": 99, "unit": "%"}, {"measurement": "pest or weed control at 280 g/ha", "setting": "[3]; 168 h, 7 DAA", "value": 80, "unit": "%"}, {"measurement": "pest or weed control at 560 g/ha", "setting": "[3]; 168 h, 7 DAA", "value": 77.5, "unit": "%"}, {"measurement": "pest or weed control at 280 g/ha", "setting": "[3]; 336 h, 14 DAA", "value": 90, "unit": "%"}, {"measurement": "pest or weed control at 560 g/ha", "setting": "[3]; 336 h, 14 DAA", "value": 92.5, "unit": "%"}, {"measurement": "pest or weed control at 280 g/ha", "setting": "[3]; 504 h, 21 DAA", "value": 95, "unit": "%"}, {"measurement": "pest or weed control at 560 g/ha", "setting": "[3]; 504 h, 21 DAA", "value": 100, "unit": "%"}, {"measurement": "pest or weed control at 280 g/ha", "setting": "[4]; 168 h, 7 DAA", "value": 82.5, "unit": "%"}, {"measurement": "pest or weed control at 560 g/ha", "setting": "[4]; 168 h, 7 DAA", "value": 77.5, "unit": "%"}, {"measurement": "pest or weed control at 280 g/ha", "setting": "[4]; 336 h, 14 DAA", "value": 92.5, "unit": "%"}, {"measurement": "pest or weed control at 560 g/ha", "setting": "[4]; 336 h, 14 DAA", "value": 98.5, "unit": "%"}, {"measurement": "pest or weed control at 280 g/ha", "setting": "[4]; 504 h, 21 DAA", "value": 100, "unit": "%"}, {"measurement": "pest or weed control at 560 g/ha", "setting": "[4]; 504 h, 21 DAA", "value": 99.5, "unit": "%"}, {"measurement": "TGA Data (rate of weight loss, volatility)", "setting": "[5]", "value": 0.0575, "unit": "µg/min"}, {"measurement": "Ave. AMATA, percent reduction in plant size relative to the untreated control", "setting": "[6]; 280 g ae/ha, 21 DAA", "value": 92.5, "unit": "%"}, {"measurement": "Ave. AMATA, percent reduction in plant size relative to the untreated control", "setting": "[6]; 560 g ae/ha, 7 DAA", "value": 98.5, "unit": "%"}, {"measurement": "pest or weed control at 280 g/ha", "setting": "[6]; 168 h, 280 g ae/ha, 7 DAA", "value": 89, "unit": "%"}, {"measurement": "pest or weed control at 280 g/ha", "setting": "[6]; 336 h, 280 g ae/ha, 14 DAA", "value": 90, "unit": "%"}, {"measurement": "pest or weed control at 560 g/ha", "setting": "[6]; 336 h, 560 g ae/ha, 14 DAA", "value": 97, "unit": "%"}, {"measurement": "pest or weed control at 560 g/ha", "setting": "[6]; 504 h, 560 g ae/ha, 21 DAA", "value": 100, "unit": "%"}, {"measurement": "AVE. ABUTH, percent reduction in plant size relative to the untreated control", "setting": "[7]; 280 g ae/ha, 7 DAA", "value": 65, "unit": "%"}, {"measurement": "AVE. ABUTH, percent reduction in plant size relative to the untreated control", "setting": "[7]; 280 g ae/ha, 14 DAA", "value": 65, "unit": "%"}, {"measurement": "pest or weed control at 560 g/ha", "setting": "[7]; Abutilon theophrasti, post-emergence, 168 h, 7 DAA, read-out: AVE. ABUTH, percent reduction in plant size relative to the untreated control", "value": 67.5, "unit": "%"}, {"measurement": "pest or weed control at 560 g/ha", "setting": "[7]; Abutilon theophrasti, post-emergence, 336 h, 14 DAA, read-out: AVE. ABUTH, percent reduction in plant size relative to the untreated control", "value": 77.5, "unit": "%"}, {"measurement": "pest or weed control at 280 g/ha", "setting": "[7]; Abutilon theophrasti, post-emergence, 504 h, 280 g ae/ha, 21 DAA, read-out: AVE. ABUTH, percent reduction in plant size relative to the untreated control", "value": 97.5, "unit": "%"}, {"measurement": "pest or weed control at 560 g/ha", "setting": "[7]; Abutilon theophrasti, post-emergence, 504 h, 21 DAA, read-out: AVE. ABUTH, percent reduction in plant size relative to the untreated control", "value": 97.5, "unit": "%"}]}]}
